Test results taken from patent US20240199648A1, “MAP4K1 INHIBITORS” (Blueprint Medicines Corporation, priority 2021, published 2024).

Target: T1, MAP4K1 (HPK1) (Homo sapiens, UniProt Q92918)
T1 construct: purchased Invitrogen
Experiment: Inhibition of MAP4K1 biochemical enzymatic activity (EZReader 2 electrophoretic mobility shift assay)
Details: HPK1 (Invitrogen), S6K2tide 1.5 μM, 120 min; ATP 26 μM or 1000 μM (not stated which)
From the text: MAP4K1 (HPK1) and relevant off-target enzymatic activity was monitored using the Perkin Elmer electrophoretic mobility shift technology platform—the EZReader 2. […] Within the linear, steady-state phase of the kinase enzymatic reaction, the mixed pool of phosphorylated (product) and non-phosphorylated (substrate) peptides was passed through the microfluidic system of the PerkinElmer EZ Reader 2, under an applied electric potential difference. The presence of the phosphate group on the product peptide provided a difference in mass and charge between that of the substrate peptide, resulting in a separation of the substrate and product pools in the sample (Perrin et al. 2010). As the product and substrate peptide mixture passes the lasers within the instrument, these pools are detected (λex=488 nm, λem=568 nm) and resolved as separate peaks. The ratio between these peaks reflects the activity of the compound at that concentration, in that well, under those conditions.
Inhibitors were dissolved in 100% DMSO at a stock concentration of 10 mM. A 100×, 10-point, 4-fold serial dilution of each inhibitor was created in 100% DMSO either manually or on a Hamilton STAR liquid handler, starting at a relevant concentration, usually 1 mM. A volume of 0.130 μL of each concentration was transferred to the relevant wells of a 384-well plate (Greiner 781 201) in diplicate using a TTPLabtech Mosquito nano-litre dispenser. Using a Multidrop Combi, the remaining constituents of the kinase reaction were added to the 130 nL of dosed compound as follows (see table below for final reaction details):
Enzyme activity assays at the ^APPKM for ATP or 1 mM ATP: In each well of a 384-well plate, 0.1-15 nM of untreated enzyme was incubated in a total of 13 μL of buffer (100 mM HEPES pH 7.5, 0.015% Brij 35, 10 mM MgCl2, 1 mM DTT) with 1.5 μM fluorescent peptid and 20-1000 μM ATP, at 25° C., for 60-180 minutes in the presence or absence of a dosed concentration series of compound (1% DMSO final concentration). The kinase reactions were stopped by the addition of 70 μl of Stop buffer (100 mM HEPES pH 7.5, 0.015% Brij 35, 35 mM EDTA and 0.2% of Coating Reagent 3 (Caliper Lifesciences)). The plates were read on a Caliper EZReader 2 as described above.

T1 sequence (Q92918 whole entry): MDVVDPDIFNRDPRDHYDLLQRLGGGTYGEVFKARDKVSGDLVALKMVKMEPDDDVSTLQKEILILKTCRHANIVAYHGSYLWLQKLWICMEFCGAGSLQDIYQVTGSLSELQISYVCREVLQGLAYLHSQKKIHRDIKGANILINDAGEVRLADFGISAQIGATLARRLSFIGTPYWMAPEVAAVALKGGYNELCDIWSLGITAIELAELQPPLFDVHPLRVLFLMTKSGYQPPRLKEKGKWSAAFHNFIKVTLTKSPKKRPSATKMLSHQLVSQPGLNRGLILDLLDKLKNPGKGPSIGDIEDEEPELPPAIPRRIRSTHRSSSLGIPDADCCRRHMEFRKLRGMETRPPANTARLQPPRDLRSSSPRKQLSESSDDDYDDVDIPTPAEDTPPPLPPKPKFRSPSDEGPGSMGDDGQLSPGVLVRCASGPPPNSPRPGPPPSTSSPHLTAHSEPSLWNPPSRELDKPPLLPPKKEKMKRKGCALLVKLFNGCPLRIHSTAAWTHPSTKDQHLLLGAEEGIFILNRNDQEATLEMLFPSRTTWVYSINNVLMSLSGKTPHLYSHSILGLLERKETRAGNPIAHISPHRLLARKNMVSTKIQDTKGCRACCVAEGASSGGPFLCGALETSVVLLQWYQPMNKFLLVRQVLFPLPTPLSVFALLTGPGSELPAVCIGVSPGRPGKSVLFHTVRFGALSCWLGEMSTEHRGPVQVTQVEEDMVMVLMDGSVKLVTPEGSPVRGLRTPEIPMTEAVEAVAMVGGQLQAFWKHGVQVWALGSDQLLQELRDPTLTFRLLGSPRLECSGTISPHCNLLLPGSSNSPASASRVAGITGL

Row | SMILES | IC50 [pM]
1 | CC(=O)N1CC[C@@H](Oc2ncc(C(C)(C)N)c3cc(Nc4ccc5c(n4)[C@@H](C)[C@H](C)OC5=O)ncc23)C1 [Compound 24] | 890
2 | CC(=O)N(C)CCOc1ncc(C(C)(C)N)c2cc(Nc3ccc4c(n3)[C@@H](C)C(C)(C)OC4=O)ncc12 [Compound 28] | 290
3 | CCC(=O)N1CC(Oc2ncc(C(C)(C)N)c3cc(Nc4ccc5c(n4)C4(CC4)C(C)(C)OC5=O)ncc23)C1 [Compound 43] | 220
4 | C[C@@H]1OC(=O)c2ccc(Nc3cc4c(C(C)(C)N)cnc(OC5CN(C(=O)C6(F)CC6)C5)c4cn3)nc2[C@H]1C [Compound 60] | 160
5 | C[C@@H]1c2nc(Nc3cc4c(C(C)(C)N)ccc(OC5CN(C(=O)C6CC6)C5)c4cn3)ccc2C(=O)OC1(C)C [Compound 41] | 100
6 | CCOC(=O)N1CC(Oc2ncc(C(C)(C)N)c3cc(Nc4ccc5c(n4)[C@@H](C)[C@H](C)OC5=O)ncc23)C1 [Compound 37] | 150
7 | COC(=O)N1CC(Oc2ncc(C(C)(C)N)c3cc(Nc4ccc5c(n4)[C@@H](C)C(C)(C)OC5=O)ncc23)C1 [Compound 38] | 230
8 | CC[C@@H](N)c1cnc(OC2CN(C(=O)[C@@H]3C[C@@H]3F)C2)c2cnc(Nc3ccc4c(n3)[C@@H](C)[C@H](C)OC4=O)cc12 (single isomer, unassigned) [Compound 58] | 750
9 | CC(=O)N1CC(Oc2ncc(C(C)(C)N)c3cc(Nc4ccc5c(n4)[C@H](C)COC5=O)ncc23)C1 (single isomer, unassigned) [Compound 17] | 490
10 | C[C@@H]1C[C@@H]1C(=O)N1CC(Oc2ncc(C(C)(C)N)c3cc(Nc4ccc5c(n4)[C@@H](C)C(C)(C)OC5=O)ncc23)C1 [Compound 64] | 160
11 | C[C@@H]1OC(=O)c2ccc(Nc3cc4c(C(C)(C)N)cnc(OC5CN(C(=O)[C@H]6C[C@@H]6C)C5)c4cn3)nc2[C@H]1C [Compound 47] | 180
12 | CC(=O)N1CC(C)(Oc2ncc(C(C)(C)N)c3cc(Nc4ccc5c(n4)[C@@H](C)[C@H](C)OC5=O)ncc23)C1 [Compound 26] | 310
13 | C[C@@H]1OC(=O)c2ccc(Nc3cc4c(C(C)(C)N)cnc(OC5CN(C(=O)C6(O)CC6)C5)c4cn3)nc2[C@H]1C [Compound 55] | 160
14 | C[C@@H]1C[C@@H]1C(=O)N1CC(Oc2ncc(C(C)(C)N)c3cc(Nc4ccc5c(n4)[C@@H](C)[C@H](C)OC5=O)ncc23)C1 [Compound 44] | 120
15 | CC[C@H](N)c1cnc(OC2CN(C(=O)[C@@H]3C[C@@H]3F)C2)c2cnc(Nc3ccc4c(n3)[C@@H](C)[C@H](C)OC4=O)cc12 [Compound 59] | 240
16 | C[C@@H]1C[C@H]1C(=O)N1CC(Oc2ncc(C(C)(C)N)c3cc(Nc4ccc5c(n4)[C@@H](C)C(C)(C)OC5=O)ncc23)C1 [Compound 66] | 220
17 | COCC(=O)N1CC(Oc2ncc(C(C)(C)N)c3cc(Nc4ccc5c(n4)[C@@H](C)C(C)(C)OC5=O)ncc23)C1 [Compound 61] | 210
18 | C[C@@H]1c2nc(Nc3cc4c(C(C)(C)N)cnc(OC5CN(C(=O)[C@@H]6C[C@@H]6C)C5)c4cn3)ccc2C(=O)OC1(C)C [Compound 67] | 200
19 | COC(=O)N1CC[C@@H](Oc2ncc(C(C)(C)N)c3cc(Nc4ccc5c(n4)[C@@H](C)[C@H](C)OC5=O)ncc23)C1 [Compound 36] | 650
20 | C[C@@H]1OC(=O)c2ccc(Nc3cc4c(C(C)(C)N)cnc(O[C@@H]5CN(C(=O)C6CC6)[C@H]5C)c4cn3)nc2[C@H]1C [Compound 45] | 160
21 | CCC(=O)N1CC(Oc2ncc(C(C)(C)N)c3cc(Nc4ccc5c(n4)[C@@H](C)[C@H](C)OC5=O)ncc23)C1 [Compound 2] | 380
22 | CC(=O)N1CC(Oc2ncc(C(C)(C)N)c3cc(Nc4ccc5c(n4)[C@@H](C)COC5=O)ncc23)C1 (single isomer, unassigned) [Compound 18] | 3060
23 | CC[C@@](C)(N)c1cnc(OC2CN(C(C)=O)C2)c2cnc(Nc3ccc4c(n3)[C@@H](C)[C@H](C)OC4=O)cc12 [Compound 23] | 320
24 | COC(=O)N1CC[C@H](Oc2ncc(C(C)(C)N)c3cc(Nc4ccc5c(n4)[C@@H](C)[C@H](C)OC5=O)ncc23)C1 [Compound 35] | 300
25 | CC(=O)N1CC[C@H](Oc2ncc(C(C)(C)N)c3cc(Nc4ccc5c(n4)[C@@H](C)[C@H](C)OC5=O)ncc23)C1 [Compound 25] | 1380
26 | C[C@@H]1OC(=O)c2ccc(Nc3cc4c(C(C)(C)N)cnc(O[C@H]5CCN(C(=O)C6CC6)C5)c4cn3)nc2[C@H]1C [Compound 50] | 320
27 | COC(=O)N1CC(Oc2ncc(C(C)(C)N)c3cc(Nc4ccc5c(n4)[C@@H](C)[C@H](C)OC5=O)ncc23)C1 [Compound 27] | 300
28 | CC(=O)N1CC(Oc2ncc(C(C)(C)N)c3cc(Nc4ccc5c(n4)C4(CC4)C(C)(C)OC5=O)ncc23)C1 [Compound 30] | 200

Second part, the compound after the results:

Row | IC50 [pM] | SMILES
29 | 270 | C[C@@H]1c2nc(Nc3cc4c(C(C)(C)N)cnc(OC5CN(C(=O)C6(C)CC6)C5)c4cn3)ccc2C(=O)OC1(C)C [Compound 71]
30 | 140 | C[C@@H]1c2nc(Nc3cc4c(C(C)(C)N)cnc(O[C@H]5C[C@@H](C(=O)N6CC(F)C6)C5)c4cn3)ccc2C(=O)OC1(C)C [Compound 94]
31 | 1810 | CC[C@H](N)c1cnc(O[C@H]2C[C@@H](C(=O)N3CC(OC)C3)C2)c2cnc(Nc3ccc4c(n3)[C@@H](C)C(C)(C)OC4=O)cc12 (single isomer, unassigned) [Compound 126]
32 | 320 | C[C@@H]1OC(=O)c2ccc(Nc3cc4c(C(C)(C)N)cnc(OC5CN(C(=O)[C@H]6CCOC6)C5)c4cn3)nc2[C@H]1C [Compound 73]
33 | 240 | C[C@@H]1c2nc(Nc3cc4c(C(C)(C)N)cnc(OC5CN(C(=O)C6(C(F)(F)F)CC6)C5)c4cn3)ccc2C(=O)OC1(C)C [Compound 103]
34 | 180 | C[C@@H]1c2nc(Nc3cc4c(C(C)(C)N)cnc(OC5CN(C(=O)[C@@H]6CCCO6)C5)c4cn3)ccc2C(=O)OC1(C)C [Compound 90]
35 | 160 | C[C@@H]1c2nc(Nc3cc4c(C(C)(C)N)cnc(OC5CN(C(=O)[C@H]6C[C@@H]6C)C5)c4cn3)ccc2C(=O)OC1(C)C [Compound 68]
36 | 310 | COC[C@@](C)(N)c1cnc(O[C@@H]2CN(C(=O)C3CC3)[C@H]2C)c2cnc(Nc3ccc4c(n3)[C@@H](C)[C@H](C)OC4=O)cc12 [Compound 91]
37 | 310 | C[C@@H]1c2nc(Nc3cc4c(C(C)(C)N)cnc(OC[C@@H]5C[C@@H]5C(=O)N(C)C)c4cn3)ccc2C(=O)OC1(C)C (single isomer, unassigned) [Compound 107]
38 | 270 | CO[C@@H](C)C(=O)N1CC(Oc2ncc(C(C)(C)N)c3cc(Nc4ccc5c(n4)[C@@H](C)C(C)(C)OC5=O)ncc23)C1 (single isomer, unassigned) [Compound 86]
39 | 190 | C[C@@H]1OC(=O)c2ccc(Nc3cc4c(C(C)(C)N)cnc(O[C@H]5C[C@@H](C(=O)N6CC(F)(F)C6)C5)c4cn3)nc2[C@H]1C [Compound 98]
40 | 350 | COC[C@@](C)(N)c1cnc(O[C@H]2CN(C(=O)C3CC3)[C@@H]2C)c2cnc(Nc3ccc4c(n3)[C@@H](C)[C@H](C)OC4=O)cc12 [Compound 89]
41 | 310 | COC1(C(=O)N2CC(Oc3ncc(C(C)(C)N)c4cc(Nc5ccc6c(n5)[C@@H](C)[C@H](C)OC6=O)ncc34)C2)CC1 [Compound 79]
42 | 140 | C[C@@H]1OC(=O)c2ccc(Nc3cc4c(C(C)(C)N)cnc(OC5CN(C(=O)[C@H]6CC6(C)C)C5)c4cn3)nc2[C@H]1C [Compound 69]
43 | 360 | C[C@@H]1OC(=O)c2ccc(Nc3cc4c(C(C)(C)N)cnc(OC5CN(C(=O)[C@@H]6CCOC6)C5)c4cn3)nc2[C@H]1C [Compound 74]
44 | 70 | C[C@@H]1c2nc(Nc3cc4c(C(C)(C)N)ccc(OCCOC(=O)N(C)C)c4cn3)ccc2C(=O)OC1(C)C [Compound 114]
45 | 390 | C[C@@H]1c2nc(Nc3cc4c(C(C)(C)N)cnc(OC[C@H]5C[C@H]5C(=O)N(C)C)c4cn3)ccc2C(=O)OC1(C)C (single isomer, unassigned) [Compound 106]
46 | 200 | C[C@@H]1c2nc(Nc3cc4c(C(C)(C)N)cnc(OC[C@@H]5C[C@H]5C(=O)N(C)C)c4cn3)ccc2C(=O)OC1(C)C (single isomer, unassigned) [Compound 104]
47 | 4000 | CC(=O)N1CC(Oc2ncc(C(C)(C)N)c3cc(Nc4ccc5c(n4)C(C)(C)OC5=O)ncc23)C1 [Compound 109]
48 | 2020 | CC(=O)N1CCC[C@H]1COc1ncc(C(C)(C)N)c2cc(Nc3ccc4c(n3)[C@@H](C)C(C)(C)OC4=O)ncc12 [Compound 117]
49 | 380 | C[C@@H]1OC(=O)c2ccc(Nc3cc4c(C(C)(C)N)cnc(OC5CN(C(=O)[C@H]6CCCO6)C5)c4cn3)nc2[C@H]1C [Compound 75]
